Measured values from paper PMC12198407, “Preclinical and first-in-human of purinostat mesylate, a novel selective HDAC I/IIb inhibitor, in relapsed/refractory multiple myeloma and lymphoma” (Signal Transduction and Targeted Therapy, 2025).
Read-outs that look alike come from different tables or passages of the source.

How the values were obtained:
[1] = test system: cMYC-KRAS12V plasmacytoma; assay: cMYC-KRAS12V primary plasmacytoma (PCT) mouse model; format: in vivo, BALB/c mice
Experimental: The cMYC-KRAS12V-induced plasmacytoma mouse model in BALB/c (GemPharmatech Co., Ltd., Nanjing, China) was established as previously described.[33] On day 28 or 35 post bone marrow transplantation, recipients received various treatments. The 5TMM mouse model was established as previously described.[55] The 5TGM1-luc cells were intravenously injected into 6-week-old C57BL/KawRij mice (Harlan Co. Netherlands) with 2 × 10^6 cells per mouse. After three weeks, mice were treated with vehicle or PM 10 mg/kg. Serum Ca^2+ levels were monitored weekly for three weeks after the start of administration. Kaplan-Meier survival curves were generated for each treatment group. Additionally, the 5TMM mouse model studying PM’s effects on immune response and bone destruction involved randomizing mice into vehicle and PM (10 mg/kg) groups one week after inoculation. T cell subsets were analyzed by flow cytometry 24 h after a single dose and 1 month after vehicle or PM treatment. The mice were sacrificed after 1 month of treatment, and the bone destruction was detected by Micro-CT.

[2] = Metabolite profiling in plasma, bile, urine, feces; format: in vivo, SD rats; settings: for share of plasma AUC0-96h: [14C] 3 mg/100 µCi/kg i.v.; for amount in bile, % of administered dose: 0 to 72 hours; for amount in feces, % of administered dose / amount in urine, % of administered dose: 0 to 168 hours
Experimental: Following a single intravenous administration of [14C] Purinostat Mesylate at a dose of 3 mg/100 µCi/kg in male and female rats, a total of 14 metabolites were identified, in addition to the parent compound. These were designated as M382, M396, M474, M475, M490, M516, M517, M532, M546, M548, M558, M666, M708a, and M708b. Among these, M382 is an acetylated product of the parent drug after N-dealkylation, M396 is a carboxylic acid derivative of M382, M474 is a reduction product of the parent drug, M475 is a hydroxylated product derived from the amino conversion of M474, M490 is a mono-oxidation product of M474, M516 is an acetylated product of M474, M517 is a hydroxylated product derived from the amino conversion of M516, M532 is an acetylated product of the parent drug, M546 is a methylated product of M532, M548 is a dioxidation product of M516, M558 is a glucuronic acid conjugate of M382, M666 is a glucuronic acid conjugate of the parent drug, M708a is a mono-oxidation glucuronic acid conjugate of M516, and M708b is a glucuronic acid conjugate of M532.

[3] = Pharmacokinetics and tissue distribution in Ighmyc mice; format: in vivo
Excerpt: In B cell-related tumors, the mechanism of disease often involves the translocation of the MYC oncogene to the immunoglobulin promoter region, leading to its hyperactivation. The translocation of the MYC gene to the IGH enhancer (t(8;14) (q24;q32)) is a molecular hallmark of Burkitt lymphoma. The Ighmyc (Eμ-myc) mouse model successfully mimics this pathogenic mechanism by translocating the MYC oncogene to the immunoglobulin μ enhancer. […] We isolated bone marrow and enlarged spleen from diseased Ighmyc mice and transplanted them into normal C57 mice via tail vein injection to induce a primary B cell lymphoma model. This study aims to investigate the pharmacokinetic characteristics and tissue distribution of Purinostat Mesylate in plasma and target organs in the context of primary B cell lymphoma.
The mean residence times (MRT) were 6.00 ± 1.00 h, 24.8 ± 1.03 h, and 23.4 ± 3.59 h, respectively. […] However, in Ighmyc mice, the plasma drug concentration after the same duration was 7.11 ± 3.15 ng/mL. […] The pharmacokinetic characteristics support the notion that spaced dosing of the drug can still maintain favorable pharmacodynamic outcomes.

human liver cells = assay: Cytotoxicity on donor liver cells; format: cell-based

In the case of `CN(Cc1nc2c(N3CCOCC3)nc(-c3ccc(N)cc3)nc2n1C)c1ncc(C(=O)NO)cn1.CS(=O)(=O)O` [PM, 2-(((2-(4-Aminophenyl)-9-methyl-6-(4-morpholinyl)-9H-purine-8-yl)methyl)methylamino)-N-hydroxy-5-pyrimidine-carboxamide Mesylate], the “median survival time (MST)” value ([1]; 5 mg/kg, vehicle 47 days) is reported as 68 days, the “median survival time (MST)” value ([1]; more severe PCT model, from day 35, PM 10 mg/kg, regimens per Table S9) is reported as 59 days and the “share of plasma AUC0-96h” value ([2]; female rats) is reported as 11.15%. For the same compound, the “amount in bile, % of administered dose” value ([2]; females) was 2.45%, the “amount in feces, % of administered dose” value ([2]; females) was 0.84% and the “amount in urine, % of administered dose” value ([2]; females) was 0.35%. For the same compound, the “share of plasma AUC0-96h” value ([2]; male rats) was 8.79%, the “amount in bile, % of administered dose” value ([2]; males) was 2.47% and the “amount in feces, % of administered dose” value ([2]; males) was 0.94%. The “amount in urine, % of administered dose” value ([2]; males) was 0.66%, the “abnormal B220+/IgM- cell population in peripheral blood” value ([3]; 48 hours after single i.v. 5 mg/kg, untreated 48.9%) was “about 18.8%” and the AUC(0-t) ([3]; Ighmyc (Eμ-myc), mouse, lymph node, iv, single i.v. 5 mg/kg, read-out: lymph node AUC(0-72h)) was 16100 ± 2040 ng·h/mL. For the same compound, the Cmax ([3]; Ighmyc (Eμ-myc), mouse, lymph nodes, iv, single i.v. 5 mg/kg, read-out: Cmax in lymph nodes) was 578 ± 153 ng/mL, the MRT ([3]; Ighmyc (Eμ-myc), mouse, lymph nodes, iv, single i.v. 5 mg/kg, read-out: MRT in lymph nodes) was 23.4 ± 3.59 h and the half-life ([3]; Ighmyc (Eμ-myc), mouse, lymph nodes, iv, single i.v. 5 mg/kg, read-out: T1/2 in lymph nodes (converted)) was 21.9 ± 10.2 h. It also gave a concentration at 48 h ([3]; Ighmyc (Eμ-myc), mouse, lymph nodes, iv, single i.v. 5 mg/kg, read-out: concentration in lymph nodes at 48 hours) of 178 ± 46 ng/mL, a Cmax ([3]; Ighmyc (Eμ-myc), mouse, plasma, iv, single i.v. 5 mg/kg, read-out: Cmax in plasma) of 304 ± 277 ng/mL and an MRT ([3]; Ighmyc (Eμ-myc), mouse, plasma, iv, single i.v. 5 mg/kg, read-out: MRT in plasma) of 6 ± 1 h. The half-life ([3]; Ighmyc (Eμ-myc), mouse, plasma, iv, single i.v. 5 mg/kg, read-out: T1/2 in plasma (converted)) was 12.2 ± 2.1 h, the AUC(0-t) ([3]; Ighmyc (Eμ-myc), mouse, plasma, iv, single i.v. 5 mg/kg, read-out: plasma AUC(0-48h)) was 875 ± 437 ng·h/mL and the concentration at 24 h ([3]; Ighmyc (Eμ-myc), mouse, plasma, iv, single i.v. 5 mg/kg, read-out: plasma drug concentration at 24 hours) was 7.11 ± 3.15 ng/mL. It also gave a Cmax ([3]; Ighmyc (Eμ-myc), mouse, spleen, iv, single i.v. 5 mg/kg, read-out: Cmax in spleen) of 410 ± 69.9 ng/mL, an MRT ([3]; Ighmyc (Eμ-myc), mouse, spleen, iv, single i.v. 5 mg/kg, read-out: MRT in spleen) of 24.8 ± 1.03 h and a half-life ([3]; Ighmyc (Eμ-myc), mouse, spleen, iv, single i.v. 5 mg/kg, read-out: T1/2 in spleen (converted)) of 20.8 ± 7.94 h. The concentration at 48 h ([3]; Ighmyc (Eμ-myc), mouse, spleen, iv, single i.v. 5 mg/kg, read-out: concentration in spleen at 48 hours) was 134 ± 18.5 ng/mL, the AUC(0-t) ([3]; Ighmyc (Eμ-myc), mouse, spleen, iv, single i.v. 5 mg/kg, read-out: spleen AUC(0-72h)) was 12500 ± 244 ng·h/mL and the “plasma drug concentration at 24 hours” value ([3]; single i.v. 5 mg/kg, listed as Purinostat Mesylate, 5 mg/kg) was 7.11 ng/mL. The “cytotoxicity on donor liver cells” value (human liver cells) was “exhibited cytotoxic effects on donor liver cells at concentrations up to 5.00 μM”.
